# Reference: patent US20060069132A1, “Azolecarboxamide herbicides” (priority 2004, published 2006)
# How the values were obtained:
# morningglory [1] = test: Test B pre-/postemergence herbicide test; assay type: in vivo, Ipomoea coccinea
# Method in brief: (§1)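 Greenhouse pot assay with simultaneous preemergence (treated seed) and postemergence (2–18 cm seedlings) applications of surfactant-containing, non-phytotoxic solvent formulations. Response scored visually 13–15 days later on a 0–100 scale, 100 meaning complete control.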
# redroot pigweed = test: Test A pre-/postemergence herbicide test; assay type: in vivo, Amaranthus retroflexus; settings: for Plant response rating, Pigweed: Postemergence; for Pigweed plant response rating: Preemergence
# Method in brief: (§2)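 Seeds sown in sandy loam received a preemergence directed soil spray of compound in non-phytotoxic solvent with surfactant; postemergence plants (2–10 cm, one- to two-leaf stage) were sprayed to runoff at the same time. After ~10 days in greenhouse, injury was rated visually versus untreated controls (0 = no effect, 100 = complete control).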
# cocklebur = test: Test B pre-/postemergence herbicide test; assay type: in vivo, Xanthium strumarium
# Method in brief: as §1
# rice [2] = test: Test B pre-/postemergence herbicide test; assay type: in vivo, Oryza sativa; settings: preemergence, 125 g ai/ha; 0 to 100 scale, 0 is no effect, 100 is complete control
# Method in brief: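 Evaluation is visual, comparing treated with control plants on a scale where 0 means no effect and 100 means full control. Treatments were preemergence, or postemergence on seedlings 2–18 cm tall, and held 13–15 days in the greenhouse.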
# corn = test: Test B pre-/postemergence herbicide test; assay type: in vivo, Zea mays
# Method in brief: (§3)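 Flooded paddy rice and barnyardgrass were treated at the 2-leaf stage; upland plantings received compound either on sown seed or on 1- to 4-leaf seedlings. All were kept 13–15 days in a greenhouse and scored visually, 0–100, relative to untreated plants.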
# giant foxtail [3] = test: Test B pre-/postemergence herbicide test; assay type: in vivo, Setaria faberi
# Method in brief: as §3
# rice [4] = test: Test B flooded paddy test; assay type: in vivo, Oryza sativa; settings: 1000 g ai/ha, visual rating, scale 0 to 100 (0 no effect, 100 complete control), 13 to 15 days
# Method in brief: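 After treating 2-leaf paddy plants or 2–18 cm postemergence plants (1 to 4 leaves) with formulated chemical, researchers kept them in a greenhouse for 13–15 days. Effects were judged visually versus controls: 0 indicates none, 100 total control.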
# lambsquarters = test: Test B pre-/postemergence herbicide test; assay type: in vivo, Chenopodium album
# Method in brief: as §3
# large crabgrass [5] = test: Test A pre-/postemergence herbicide test; assay type: in vivo, Digitaria sanguinalis; settings: for Plant response rating, Crabgrass, Large: Postemergence; for Crabgrass, Large plant response rating: Preemergence
# Method in brief: as §2
# ducksalad = test: Test B flooded paddy test; assay type: in vivo, Heteranthera limosa; settings: 1000 g ai/ha, visual rating, scale 0 to 100 (0 no effect, 100 complete control), 13 to 15 days
# Method in brief: (§4)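 Greenhouse test; postemergence application to plants at 1–4 leaves (2–18 cm); paddy species at 2 leaves; evaluated visually vs controls at 13–15 days; scale 0–100 (100 = complete control).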
# velvetleaf [6] = test: Test B pre-/postemergence herbicide test; assay type: in vivo, Abutilon theophrasti
# Method in brief: as §3
# blackgrass = test: Test B postemergence herbicide test; assay type: in vivo, Alopecurus myosuroides; settings: scale 0 (no effect) to 100 (complete control)
# Method in brief: as §4
# pigweed = test: Test B pre-/postemergence herbicide test; assay type: in vivo, Amaranthus retroflexus
# Method in brief: as §3
# barnyardgrass [7] = test: Test B flooded paddy test; assay type: in vivo, Echinochloa crus-galli; settings: 1000 g ai/ha, visual rating, scale 0 to 100 (0 no effect, 100 complete control), 13 to 15 days
# Method in brief: as §4
# Surinam grass = test: Test B pre-/postemergence herbicide test; assay type: in vivo, Urochloa decumbens
# Method in brief: as §3
# morningglory [8] = test: Test A pre-/postemergence herbicide test; assay type: in vivo, Ipomoea spp.; settings: for Plant response rating, Morningglory: Postemergence; for Morningglory plant response rating: Preemergence
# Method in brief: as §2
# wheat = test: Test B postemergence herbicide test; assay type: in vivo, Triticum aestivum; design: key to Wheat plant response rating: 0 = no effect, 100 = complete control; settings: scale 0 (no effect) to 100 (complete control)
# Method in brief: (§5)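 Read-out: visual comparison with controls, scored 0 to 100, where 100 means complete control and 0 no effect. Formulated chemicals were applied postemergence to plants 2–18 cm tall (1- to 4-leaf), or to flooded-paddy plants at the 2-leaf stage, then held 13 to 15 days under glass.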
# barnyardgrass [9] = test: Test A pre-/postemergence herbicide test; assay type: in vivo, Echinochloa crus-galli; settings: for Plant response rating, Barnyardgrass: Postemergence; for Barnyardgrass plant response rating: Preemergence
# Method in brief: as §2
# wild oat = test: Test B postemergence herbicide test; assay type: in vivo, Avena fatua; settings: scale 0 (no effect) to 100 (complete control)
# Method in brief: as §5
# giant foxtail [10] = test: Test A pre-/postemergence herbicide test; assay type: in vivo, Setaria faberi; settings: for Plant response rating, Foxtail, Giant: Postemergence; for Foxtail, Giant plant response rating: Preemergence
# Method in brief: as §2
# large crabgrass [11] = test: Test B pre-/postemergence herbicide test; assay type: in vivo, Digitaria sanguinalis
# Method in brief: as §3
# barnyardgrass [12] = test: Test B pre-/postemergence herbicide test; assay type: in vivo, Echinochloa crus-galli
# Method in brief: as §1
# velvetleaf [13] = test: Test A pre-/postemergence herbicide test; assay type: in vivo, Abutilon theophrasti; settings: for Velvetleaf plant response rating: Preemergence, visual rating, 0 to 100 scale (0 no effect, 100 complete control)
# Method in brief: as §2
# [14] = tested on: small flower umbrella sedge; test: Test B flooded paddy test; assay type: in vivo, Cyperus difformis; settings: 1000 g ai/ha, visual rating, scale 0 to 100 (0 no effect, 100 complete control), 13 to 15 days
# Method in brief: as §4
# [15] = Postemergence, 500 g ai/ha, visual rating after 13 to 15 days, scale 0 (no effect) to 100 (complete control)
# [16] = postemergence, 125 g ai/ha, visual rating, scale 0 (no effect) to 100 (complete control)
# [17] = preemergence, 125 g ai/ha, 0 to 100 scale, 0 is no effect, 100 is complete control
# [18] = 500 g ai/ha, 0 to 100 scale, 0 no effect, 100 complete control
# [19] = 2000 g ai/ha, 0 to 100 scale, 0 no effect, 100 complete control
# [20] = 500 g ai/ha, visual rating, 0 to 100 scale (0 no effect, 100 complete control)
# [21] = Preemergence, 500 g ai/ha, scale 0 to 100
# [22] = Postemergence, 500 g ai/ha, visual rating after 13 to 15 days
# [23] = postemergence, 125 g ai/ha, visual rating
compound,measurement,setting,value
CCn1nc(C(C)(C)C)cc1C(=O)Nc1cccc2c1CCN(C1CCCC1)C2=O [Compound 66],"Plant response rating, Morningglory",morningglory [1]; [15],20
same,Morningglory plant response rating,morningglory [1]; [16],20
same,"Plant response rating, Morningglory",morningglory [1]; [17],0
same,"Plant response rating, Pigweed",redroot pigweed; [18],10
same,"Plant response rating, Pigweed",redroot pigweed; [19],10
same,Pigweed plant response rating,redroot pigweed; [20],0
same,Pigweed plant response rating,redroot pigweed; [19],0
same,"Plant response rating, Cocklebur",cocklebur; [15],30
same,Cocklebur plant response rating,cocklebur; [21],0
same,Cocklebur plant response rating,cocklebur; [16],20
same,"Plant response rating, Cocklebur",cocklebur; [17],0
same,"Plant response rating, Rice",rice [2],0
same,"Plant response rating, Corn",corn; [15],20
same,Corn plant response rating,corn; [21],0
same,Corn plant response rating,corn; [16],10
same,"Plant response rating, Corn",corn; [17],0
same,"Plant response rating, Foxtail, Giant",giant foxtail [3]; [15],20
same,"Foxtail, Giant plant response rating",giant foxtail [3]; [21],10
same,"Foxtail, Giant plant response rating",giant foxtail [3]; [16],0
same,"Plant response rating, Foxtail, Giant",giant foxtail [3]; [17],0
same,Rice plant response rating,rice [4],0
same,"Plant response rating, Lambsquarters",lambsquarters; [15],70
same,Lambsquarters plant response rating,lambsquarters; [16],60
same,"Plant response rating, Lambsquarters",lambsquarters; [17],0
same,"Plant response rating, Crabgrass, Large",large crabgrass [5]; [18],0
same,"Plant response rating, Crabgrass, Large",large crabgrass [5]; [19],0
same,"Crabgrass, Large plant response rating",large crabgrass [5]; [20],0
same,"Crabgrass, Large plant response rating",large crabgrass [5]; [19],0
same,Ducksalad plant response rating,ducksalad,0
same,"Plant response rating, Velvetleaf",velvetleaf [6]; [15],10
same,Velvetleaf plant response rating,velvetleaf [6]; [16],10
same,"Plant response rating, Velvetleaf",velvetleaf [6]; [17],0
same,"Plant response rating, Blackgrass",blackgrass; [22],20
same,Blackgrass plant response rating,blackgrass; [23],0
same,"Plant response rating, Pigweed",pigweed; [15],30
same,Pigweed plant response rating,pigweed; [16],20
same,"Plant response rating, Pigweed",pigweed; [17],0
same,Barnyardgrass plant response rating,barnyardgrass [7],10
same,"Plant response rating, Surinam Grass",Surinam grass; [15],10
same,Surinam Grass plant response rating,Surinam grass; [16],10
same,"Plant response rating, Surinam Grass",Surinam grass; [17],0
same,"Plant response rating, Morningglory",morningglory [8]; [18],0
same,"Plant response rating, Morningglory",morningglory [8]; [19],0
same,Morningglory plant response rating,morningglory [8]; [20],0
same,Morningglory plant response rating,morningglory [8]; [19],0
same,"Plant response rating, Wheat",wheat; [22],10
same,Wheat plant response rating,wheat; [23],0
same,"Plant response rating, Barnyardgrass",barnyardgrass [9]; [18],0
same,"Plant response rating, Barnyardgrass",barnyardgrass [9]; [19],0
same,Barnyardgrass plant response rating,barnyardgrass [9]; [20],0
same,Barnyardgrass plant response rating,barnyardgrass [9]; [19],20
same,"Plant response rating, Oat, Wild",wild oat; [22],10
same,"Oat, Wild plant response rating",wild oat; [23],10
same,"Plant response rating, Foxtail, Giant",giant foxtail [10]; [18],0
same,"Plant response rating, Foxtail, Giant",giant foxtail [10]; [19],0
same,"Foxtail, Giant plant response rating",giant foxtail [10]; [20],0
same,"Foxtail, Giant plant response rating",giant foxtail [10]; [19],0
same,"Plant response rating, Crabgrass, Large",large crabgrass [11]; [15],10
same,"Crabgrass, Large plant response rating",large crabgrass [11]; [21],10
same,"Crabgrass, Large plant response rating",large crabgrass [11]; [16],0
same,"Plant response rating, Crabgrass, Large",large crabgrass [11]; [17],0
same,"Plant response rating, Barnyardgrass",barnyardgrass [12]; [15],10
same,Barnyardgrass plant response rating,barnyardgrass [12]; [21],30
same,Barnyardgrass plant response rating,barnyardgrass [12]; [16],0
same,"Plant response rating, Barnyardgrass",barnyardgrass [12]; [17],0
same,"Plant response rating, Velvetleaf","velvetleaf [13]; Postemergence, 2000 g ai/ha, 0 to 100 scale, 0 no effect, 100 complete control",0
same,Velvetleaf plant response rating,velvetleaf [13]; 500 g ai/ha,0
same,Velvetleaf plant response rating,velvetleaf [13]; 2000 g ai/ha,0
same,"Sedge, Umbrella plant response rating",[14],10
